According to US8664257B2, “Oxygen-substituted 3-heteroaroylamino-propionic acid derivatives and their use as pharmaceuticals” (Sanofi, priority 2010, dated 2014):
Read-outs that look alike come from different tables or passages of the source. Values belong to the compound of their own block, whether it stands above or below them.

Biological target: T1, Recombinant human cathepsin A (Homo sapiens, UniProt P10619)
T1 construct: Recombinant human cathepsin A (residues 29-480, with a C-terminal 10-His tag); 10-His (C); purchased R&D Systems 1049-SE
T1 sequence (P10619 29-312 limits assumed): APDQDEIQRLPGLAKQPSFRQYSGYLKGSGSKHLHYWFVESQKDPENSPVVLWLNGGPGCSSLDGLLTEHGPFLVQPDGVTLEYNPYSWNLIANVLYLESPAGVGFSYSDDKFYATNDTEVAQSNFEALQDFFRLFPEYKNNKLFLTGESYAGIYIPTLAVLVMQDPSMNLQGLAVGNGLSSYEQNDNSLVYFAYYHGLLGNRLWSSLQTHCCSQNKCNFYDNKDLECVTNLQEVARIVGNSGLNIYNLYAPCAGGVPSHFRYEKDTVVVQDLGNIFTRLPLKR
T1 sequence (P10619 327-480 limits assumed): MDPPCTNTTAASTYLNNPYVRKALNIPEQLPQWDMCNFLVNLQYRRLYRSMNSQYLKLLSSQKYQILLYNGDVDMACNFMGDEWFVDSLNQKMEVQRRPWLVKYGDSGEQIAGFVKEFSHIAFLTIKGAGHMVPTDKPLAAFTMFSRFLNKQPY
Assay: Cathepsin A inhibitory activity
Assay type: biochemical
In short: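 Human cathepsin A (res. 29-480, C-His10) pre-activated with cathepsin L (MES pH 6.0, DTT, 15 min, 37 °C; quenched with 10 μM E-64). Enzyme (833 ng/ml) preincubated 15 min RT with compound in MES pH 5.5/DTT, then 2 μM Bodipy FL-bradykinin for 15 min RT. Capillary electrophoresis product/substrate peak areas; IC50 from % inhibition.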

[1] = read-out: Activity (2): Cathepsin A inhibitory activity, IC50 class
[2] = recombinant human cathepsin A 833 ng/ml, Bodipy FL-labeled bradykinin 2 μM, pH 5.5, read-out: CATH-A IC50
[3] = recombinant human cathepsin A, read-out: Activity (2): Cathepsin A inhibitory activity, IC50 class
[4] = read-out: Activity (2): Cathepsin A inhibitory activity (IC50 class)
[5] = pharmacological test "Cathepsin A inhibitory activity", IC50 given as class A/B/C, read-out: Activity (2): Cathepsin A inhibitory activity, IC50 class

IC50 [1]: 100 to 1000 nM
Structure (SMILES): O=C(O)CC(NC(=O)c1cc(O)n(-c2ccccc2)n1)c1ccccc1Cl (stereo not drawn) [Example 20]

Structure (SMILES): CC(C)(C)[C@H](O)COc1cc(C(=O)N[C@@H](CC(=O)O)c2ccccc2Cl)nn1-c1ccccc1F [Example 797, (S)-3-(2-Chloro-phenyl)-3-{[1-(2-fluoro-phenyl)-5-((S)-2-hydroxy-3,3-dimethyl-butoxy)-1H-pyrazole-3-carbonyl]-amino}-propionic acid]
IC50 [1]: < 100 nM

IC50 [2]: 100 nM
IC50 [3]: 100 to 1000 nM
Structure (SMILES): O=C(O)CC(NC(=O)c1cc(O)n(-c2cccc(Cl)c2)n1)c1cc(F)ccc1Cl (stereo not drawn) [Example 509, 3-(2-Chloro-5-fluoro-phenyl)-3-{[1-(3-chloro-phenyl)-5-hydroxy-1H-pyrazole-3-carbonyl]-amino}-propionic acid]

Structure (SMILES): Cc1ccc([C@H](CC(=O)O)NC(=O)c2cc(OC[C@](C)(O)C(C)(C)C)n(-c3ccccc3F)n2)cc1 [Example 780, (S)-3-{[1-(2-Fluoro-phenyl)-5-((R)-2-hydroxy-2,3,3-trimethyl-butoxy)-1H-pyrazole-3-carbonyl]-amino}-3-p-tolyl-propionic acid]
IC50 [4]: < 100 nM

IC50 [2]: 860 nM
IC50 [3]: 100 to 1000 nM
Structure (SMILES): COc1cccc(F)c1C(CC(=O)O)NC(=O)c1cc(O)n(-c2ccc(Cl)cc2)n1 (stereo not drawn) [Example 469, 3-{[1-(4-Chloro-phenyl)-5-hydroxy-1H-pyrazole-3-carbonyl]-amino}-3-(2-fluoro-6-methoxy-phenyl)-propionic acid]

IC50 [5]: 100 to 1000 nM
Structure (SMILES): O=C(O)CC(NC(=O)c1cc(O)n(-c2ccccc2Cl)n1)c1ccc(OC(F)(F)F)cc1 (stereo not drawn) [Example 215]

IC50 [4]: < 100 nM
Structure (SMILES): O=C(O)C[C@H](NC(=O)c1cc(OCC2CC2)n(-c2ccccc2F)n1)c1ccccc1 [Example 685]

Structure (SMILES): CC(C)[C@@](C)(O)COc1cc(C(=O)NC(CC(=O)O)Cc2ccccc2)nn1-c1ccccc1F (stereo partly drawn) [Example 821, 3-{[1-(2-Fluoro-phenyl)-5-((R)-2-hydroxy-2,3-dimethyl-butoxy)-1H-pyrazole-3-carbonyl]-amino}-4-phenyl-butyric acid]
IC50 [1]: < 100 nM

IC50 [5]: 1000 to 30000 nM
Structure (SMILES): N#Cc1cccc([C@H](CC(=O)O)NC(=O)c2cc(O)n(-c3ccccc3)n2)c1 [Example 160]

Structure (SMILES): CC(C)(C)[C@@H](O)COc1cc(C(=O)N[C@@H](CC(=O)O)c2ccccc2Cl)nn1-c1ccccc1F [Example 793, (S)-3-(2-Chloro-phenyl)-3-{[1-(2-fluoro-phenyl)-5-((R)-2-hydroxy-3,3-dimethyl-butoxy)-1H-pyrazole-3-carbonyl]-amino}-propionic acid]
IC50 [4]: < 100 nM

IC50 [1]: < 100 nM
Structure (SMILES): O=C(O)CC(NC(=O)c1cc(O)n(-c2cccc(F)c2)n1)c1cccc(Cl)c1Cl (stereo not drawn) [Example 314]

IC50 [3]: 1000 to 30000 nM
Structure (SMILES): COc1cc(C(=O)N[C@@H](CC(=O)N[C@@H](C)C(C)(C)C)c2ccccc2C)nn1-c1ccccc1F [Example 920, 1-(2-Fluoro-phenyl)-5-methoxy-1H-pyrazole-3-carboxylic acid [(S)-1-o-tolyl-2-((S)-1,2,2-trimethyl-propylcarbamoyl)-ethyl]-amide]

Structure (SMILES): CC(C)[C@](C)(O)COc1cc(C(=O)N[C@H](CC(=O)O)Cc2ccccc2)nn1-c1ccccc1F [Example 837, (S)-3-{[1-(2-Fluoro-phenyl)-5-((S)-2-hydroxy-2,3-dimethyl-butoxy)-1H-pyrazole-3-carbonyl]-amino}-4-phenyl-butyric acid]
IC50 [1]: 1000 to 30000 nM

IC50 [1]: 100 to 1000 nM
Structure (SMILES): O=C(O)C[C@H](NC(=O)c1cc(O)n(-c2cccc(F)c2)n1)c1ccc(F)cc1 [Example 311]

IC50 [4]: 100 to 1000 nM
Structure (SMILES): COc1cc(C(=O)NC(CC(=O)O)c2ccc(F)cc2)nn1-c1ccccc1F (stereo not drawn) [Example 678]

IC50 [4]: 1000 to 30000 nM
Structure (SMILES): O=C(O)CC(NC(=O)c1cc(O)n(C2CCCCC2)n1)c1ccc(-c2ccc(F)cc2)cc1 (stereo not drawn) [Example 575]

IC50 [3]: 100 to 1000 nM
Structure (SMILES): O=C(O)C[C@H](NC(=O)c1cc(O)n(-c2ccccc2F)n1)c1ccccc1Cl [Example 519]

IC50 [5]: 100 to 1000 nM
Structure (SMILES): COc1ccc(C(CC(=O)O)NC(=O)c2cc(O)n(-c3ccccc3Cl)n2)c(Cl)c1 (stereo not drawn) [Example 210]

IC50 [1]: 1000 to 30000 nM
Structure (SMILES): Cc1ccc(C)c(-n2nc(C(=O)NC(CC(=O)O)c3ccc(C(F)(F)F)cc3)cc2O)c1 (stereo not drawn) [Example 57]

IC50 [1]: 100 to 1000 nM
Structure (SMILES): O=C(O)C[C@H](NC(=O)c1cc(O)n(-c2ccccc2Cl)n1)c1ccccc1C(F)(F)F [Example 108]

IC50 [4]: < 100 nM
Structure (SMILES): CCOc1cc(C(=O)NC(CC(=O)O)c2ccc(C)cc2C)nn1-c1ccccc1Cl (stereo not drawn) [Example 728]

IC50 [5]: 100 to 1000 nM
Structure (SMILES): O=C(O)CC(NC(=O)c1cc(O)n(-c2ccccc2F)n1)c1ccccc1F (stereo not drawn) [Example 233]

IC50 [2]: 413 nM
IC50 [3]: 100 to 1000 nM
Structure (SMILES): O=C(O)C[C@H](NC(=O)c1cc(O)n(-c2ccc(F)cc2)n1)c1ccccc1Cl [Example 528, (S)-3-(2-Chloro-phenyl)-3-{[1-(4-fluoro-phenyl)-5-hydroxy-1H-pyrazole-3-carbonyl]-amino}-propionic acid]

IC50 [4]: < 100 nM
Structure (SMILES): Cc1ccccc1[C@H](CC(=O)O)NC(=O)c1cc(OCC(C)(C)C)n(-c2ccccc2F)n1 [Example 632]

IC50 [1]: 100 to 1000 nM
Structure (SMILES): Cc1cccc([C@H](CC(=O)O)NC(=O)c2cc(O)n(-c3cccc(F)c3)n2)c1 [Example 317]

IC50 [4]: 1000 to 30000 nM
Structure (SMILES): Cc1ccccc1[C@H](CC(=O)O)NC(=O)c1cc(O)n(-c2ccccc2S(C)(=O)=O)n1 [Example 607]

IC50 [3]: 100 to 1000 nM
Structure (SMILES): O=C(O)C[C@H](NC(=O)c1cc(O)n(-c2cccc(F)c2)n1)c1c(F)cccc1F [Example 434]

IC50 [3]: 1000 to 30000 nM
Structure (SMILES): COc1ccc([C@H](CC(=O)O)NC(=O)c2cc(O)n(-c3cccc(Cl)c3)n2)cc1 [Example 409]

IC50 [5]: 100 to 1000 nM
Structure (SMILES): O=C(O)CC(NC(=O)c1cc(O)n(-c2ccccc2Cl)n1)c1cccc(Cl)c1F (stereo not drawn) [Example 222]

IC50 [4]: 100 to 1000 nM
Structure (SMILES): Cc1ccccc1C(CC(=O)O)NC(=O)c1nn(-c2ccccc2F)c(O)c1C (stereo not drawn) [Example 592]

IC50 [1]: 100 to 1000 nM
Structure (SMILES): Cc1cc(F)ccc1C(CC(=O)O)NC(=O)c1cc(O)n(-c2ccc(F)cc2)n1 (stereo not drawn) [Example 364]

IC50 [3]: 100 to 1000 nM
Structure (SMILES): COc1ccc([C@H](CC(=O)O)NC(=O)c2cc(O)n(-c3ccc(F)cc3)n2)cn1 [Example 438]

IC50 [5]: < 100 nM
Structure (SMILES): Cc1cccc(C(CC(=O)O)NC(=O)c2cc(O)n(-c3ccc(F)cc3F)n2)c1C (stereo not drawn) [Example 191]

IC50 [1]: 100 to 1000 nM
Structure (SMILES): N#Cc1ccc([C@H](CC(=O)O)NC(=O)c2cc(O)n(-c3ccccc3F)n2)cc1 [Example 123]

IC50 [5]: 100 to 1000 nM
Structure (SMILES): O=C(O)C[C@H](NC(=O)c1cc(O)n(-c2ccccc2Cl)n1)c1cccc(C(F)(F)F)c1 [Example 218]

IC50 [5]: 100 to 1000 nM
Structure (SMILES): O=C(O)C[C@H](NC(=O)c1cc(O)n(-c2ccc(F)cc2F)n1)c1ccc(F)cc1 [Example 180]

IC50 [5]: 100 to 1000 nM
Structure (SMILES): O=C(O)CC(NC(=O)c1cc(O)n(-c2ccc(F)cc2F)n1)c1cccc(C(F)(F)F)c1Cl (stereo not drawn) [Example 193]

IC50 [3]: 100 to 1000 nM
Structure (SMILES): Cc1ccccc1[C@H](CC(=O)O)NC(=O)c1cc(O)n(Cc2ccccc2)n1 [Example 533]

Structure (SMILES): Cc1ccc([C@H](CC(=O)O)NC(=O)c2cc(OC[C@](C)(O)C(C)C)n(-c3ccccc3F)n2)cc1 [Example 860, (S)-3-{[1-(2-Fluoro-phenyl)-5-((R)-2-hydroxy-2,3-dimethyl-butoxy)-1H-pyrazole-3-carbonyl]-amino}-3-p-tolyl-propionic acid]
IC50 [1]: < 100 nM
IC50 [2]: 76.1 nM

IC50 [4]: < 100 nM
Structure (SMILES): CCOc1cc(C(=O)NC(CC(=O)O)c2cccc(F)c2C)nn1-c1ccccc1F (stereo not drawn) [Example 706]

IC50 [2]: 358 nM
IC50 [3]: 100 to 1000 nM
Structure (SMILES): Cc1ccc([C@H](CC(=O)O)NC(=O)c2cc(O)n(-c3ccc(F)cc3)n2)cc1 [Example 526, (S)-3-{[1-(4-Fluoro-phenyl)-5-hydroxy-1H-pyrazole-3-carbonyl]-amino}-3-p-tolyl-propionic acid]

IC50 [5]: 100 to 1000 nM
Structure (SMILES): O=C(O)C[C@H](NC(=O)c1cc(O)n(-c2ccc(F)cc2F)n1)c1ccc(Cl)cc1 [Example 200]

IC50 [1]: 100 to 1000 nM
Structure (SMILES): O=C(O)CC(NC(=O)c1cc(O)n(-c2ccccc2)n1)C1CCCCC1 (stereo not drawn) [Example 18]

IC50 [3]: 100 to 1000 nM
Structure (SMILES): O=C(O)CC(NC(=O)c1cc(O)n(-c2cccc(F)c2)n1)c1cc(F)ccc1Cl (stereo not drawn) [Example 483]

Structure (SMILES): CC(C)(C)[C@@](C)(O)COc1cc(C(=O)N[C@@H](CC(=O)O)c2cccc(C#N)c2)nn1-c1ccccc1F [Example 778, (S)-3-(3-Cyano-phenyl)-3-{[1-(2-fluoro-phenyl)-5-((R)-2-hydroxy-2,3,3-trimethyl-butoxy)-1H-pyrazole-3-carbonyl]-amino}-propionic acid]
IC50 [4]: < 100 nM

IC50 [1]: 100 to 1000 nM
Structure (SMILES): COc1ccc(C(CC(=O)O)NC(=O)c2cc(O)n(-c3ccccc3Cl)n2)c(F)c1 (stereo not drawn) [Example 132]

IC50 [1]: 1000 to 30000 nM
Structure (SMILES): COc1cccc([C@H](CC(=O)O)NC(=O)c2cc(O)n(-c3ccc(Cl)cc3)n2)c1 [Example 278]

IC50 [3]: 100 to 1000 nM
Structure (SMILES): O=C(O)CC(NC(=O)c1cc(O)n(-c2ccc(F)cc2)n1)c1cc(F)ccc1Cl (stereo not drawn) [Example 524, 3-(2-Chloro-5-fluoro-phenyl)-3-{[1-(4-fluoro-phenyl)-5-hydroxy-1H-pyrazole-3-carbonyl]-amino}-propionic acid]

IC50 [4]: < 100 nM
Structure (SMILES): COc1cc(C(=O)N[C@@H](CC(=O)O)c2ccccc2)nn1-c1ccccc1F [Example 665]
